Assay results as given in ChEMBL document CHEMBL1201862, “PubChem BioAssay data set” (2004).
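Growth conditions: 96-well plates. Treatment: test compound, 48 hours, 5 concentrations. Analysis: linear interpolation between bracketing concentrations; unreached endpoints set to highest concentration. GI50 = concentration required for 50% inhibition of growth.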 Activity calls are given as the source filed them. No stated cut-off is given here; in the data, active = GI50 up to about 1.1 µM and inactive = higher.

Columns and labels:
Assay in all cases: NCI tumour cell line growth inhibition, 48 h
T47D = test system: T47D
CAKI-1 = test system: CAKI-1
HCT-116 = test system: HCT-116
HOP-92 = test system: HOP-92
IGROV-1 = test system: IGROV-1
M14 = test system: M14
786-0 = test system: 786-0
Hs-578T = test system: Hs-578T
RPMI-8226 = test system: RPMI-8226
HCC 2998 = test system: HCC 2998
OVCAR-4 = test system: OVCAR-4
UO-31 = test system: UO-31
SK-MEL-5 = test system: SK-MEL-5
TK-10 = test system: TK-10
RXF 393 = test system: RXF 393
SNB-75 = test system: SNB-75
A549 = test system: A549
NCI-H226 = test system: NCI-H226
U-251 = test system: U-251
NCI/ADR-RES = test system: NCI/ADR-RES

SMILES	GI50 (T47D)	GI50 (CAKI-1)	GI50 (HCT-116)	GI50 (HOP-92)	GI50 (IGROV-1)	GI50 (M14)	GI50 (786-0)	GI50 (Hs-578T)	GI50 (RPMI-8226)	GI50 (HCC 2998)	GI50 (OVCAR-4)	GI50 (UO-31)	GI50 (SK-MEL-5)	GI50 (TK-10)	GI50 (RXF 393)	GI50 (SNB-75)	GI50 (A549)	GI50 (NCI-H226)	GI50 (U-251)	GI50 (NCI/ADR-RES)
O=C(CNc1ccc(Cl)cc1)Nn1c(-c2ccccc2)nc2ccccc2c1=O	4.83 µM (inactive)	11.4 µM (inactive)	1.62 µM (inactive)	5.07 µM (inactive)	3.84 µM (inactive)	6.18 µM (inactive)	4.18 µM (inactive)	18.4 µM (inactive)	4.47 µM (inactive)	11.1 µM (inactive)	7.5 µM (inactive)	6.75 µM (inactive)	2.84 µM (inactive)	16.4 µM (inactive)	6.55 µM (inactive)	10.1 µM (inactive)	14.2 µM (inactive)	5.52 µM (inactive)	3.47 µM (inactive)	6.79 µM (inactive)
NC(=O)c1nnn(Cc2cc(Cl)c(C(=O)c3ccc(Cl)cc3)c(Cl)c2)c1N [CARBOXYAMIDOTRIAZOLE]	17.7 µM (inactive)	12.4 µM (inactive)	11.1 µM (inactive)	32 µM (inactive)	22.5 µM (inactive)	19.6 µM (inactive)	27.9 µM (inactive)	39 µM (inactive)	25.4 µM (inactive)	> 9.1 µM (inactive)	22 µM (inactive)	25.6 µM (inactive)	5.96 µM (inactive)	20.6 µM (inactive)	23.7 µM (inactive)	32.8 µM (inactive)	12.7 µM (inactive)	33 µM (inactive)	18.2 µM (inactive)	32.1 µM (inactive)
Cc1sc2[nH]c(=O)oc(=O)c2c1C	> 86.5 µM (inactive)	35.8 µM (inactive)	> 100 µM (inactive)	> 100 µM (inactive)	> 75.3 µM (inactive)	> 61.9 µM (inactive)	70.3 µM (inactive)	28.6 µM (inactive)	41.2 µM (inactive)	> 88.5 µM (inactive)	67.6 µM (inactive)	33 µM (inactive)	48.3 µM (inactive)	> 100 µM (inactive)	> 100 µM (inactive)	> 55.8 µM (inactive)	> 83.8 µM (inactive)	> 74.5 µM (inactive)	51.4 µM (inactive)	35.1 µM (inactive)
C#CCNC(Cc1ccccc1)C(=O)O (stereo not given)	> 100 µM (inactive)	> 100 µM (inactive)	> 100 µM (inactive)	> 100 µM (inactive)	> 100 µM (inactive)	> 100 µM (inactive)	> 100 µM (inactive)	> 100 µM (inactive)	> 100 µM (inactive)	> 100 µM (inactive)	> 100 µM (inactive)	> 100 µM (inactive)	> 100 µM (inactive)	> 100 µM (inactive)	> 100 µM (inactive)	> 100 µM (inactive)	> 100 µM (inactive)	> 100 µM (inactive)	> 100 µM (inactive)	> 100 µM (inactive)
Cc1c(-c2ccccc2)c(C#N)c2nnn(C3CCCCC3)c(=O)n12	> 100 µM (inactive)	0.425 µM (active)	52.6 µM (inactive)	24 µM (inactive)	60.4 µM (inactive)	87.3 µM (inactive)	24.5 µM (inactive)	97.9 µM (inactive)	47.4 µM (inactive)	> 100 µM (inactive)	40.6 µM (inactive)	0.74 µM (active)	72.4 µM (inactive)	> 100 µM (inactive)	19.8 µM (inactive)	28 µM (inactive)	83.4 µM (inactive)	35.8 µM (inactive)	53.2 µM (inactive)	> 100 µM (inactive)
O=C(Oc1ccccc1)c1cc2cc(CCl)ccc2oc1=O	15.6 µM (inactive)	14.5 µM (inactive)	34.4 µM (inactive)	14.7 µM (inactive)	23.3 µM (inactive)	13.1 µM (inactive)	19.4 µM (inactive)	16.9 µM (inactive)	33 µM (inactive)	20.5 µM (inactive)	24.8 µM (inactive)	20.4 µM (inactive)	12.8 µM (inactive)	17.5 µM (inactive)	13.5 µM (inactive)	21.5 µM (inactive)	25.8 µM (inactive)	> 100 µM (inactive)	44.6 µM (inactive)	30 µM (inactive)
